Data reported in patent publication US9326511B2, “Methods of inhibiting microbial biofilms” (priority 2008, dated 2016).
In brackets after ≈: the same amount, converted by molar mass. Entries after “also recorded” stand apart in the source; their conditions may differ. Where two headings read alike, the source gives them in different places.

What was measured:
Assay type in all cases: cell-based, Staphylococcus aureus
[1] = test system: S. aureus SH1000 biofilms; assay: Biofilm MIC and minimum biofilm eradication concentration, Calgary Biofilm Device; conditions: for bMIC / MIC: biofilm MIC; for MBEC: minimum biofilm eradication concentration; for MIC: Staphylococcus aureus, SH1000BIOFILMS, read-out: bMIC
Method: (§1) Methods: MICs were determined for planktonic cultures by broth microdilution according to British Society for Antimicrobial Chemotherapy (BSAC) guidelines. Biofilm MICs (bMIC) and minimum biofilm eradication concentrations (MBECs) were determined using the Calgary biofilm device. The effect of Compound 10 on the viability of cold culture cells was determined by growing S. aureus SH1000 to early exponential phase at 37° C. and resuspending the cells in pre-chilled media, where they were maintained in the presence and absence of Compound 10 and control agents. The effect of Compound 10 on slow growing cells expressing the stringent response was also determined by growing cultures to early log phase and the stringent response induced by the addition of the isoleucyl-tRNA synthetase inhibitor mupirocin. Compound 10 and control agents were then added and samples recovered for viable cell determinations.
Biofilm MICs and minimum biofilm eradication concentrations (MBEC) were determined in the Calgary Biofilm Device (Nunc Inc, Roskilde, Denmark) as described by Miller et al., 2005. This involves the following steps. Aliquots (200 μL) of exponential phase cultures of strain SH1000 were added to each well of a 96-well microtitre tray. The lid assembly, which has 96 polystyrene pegs corresponding to each well, was then replaced and the system incubated for 24 hours at 37° C. on a rocking platform. Following this a biofilm of approximately 10^7 cfu matured on each peg. The lid was then washed twice in phosphate-buffered saline (PBS) to remove residual planktonic growth and then placed into a microtitre tray with fresh media containing doubling dilutions of the test antibiotic. The system was then incubated for 24 hours at 37° C. on a rocking platform. The MIC was defined as the lowest concentration of antibiotic completely inhibiting visible growth after this incubation. After the MIC was recorded, the lid assembly was again washed twice in PBS to remove planktonic cells and remaining antibiotic and then placed into fresh drug-free media. The system was incubated for a further 24 hours and the MBEC was defined as the lowest concentration of antibiotic completely inhibiting the re-establishment of planktonic growth.

S. aureus SH1000 = assay: Planktonic MIC by broth microdilution (BSAC guidelines)
Method: as §1

[2] = test system: S. aureus SH1000 cold cultures; assay: Time-kill against cold cultures (4° C.); conditions: cold culture held at 4° C. for 5 hours, agents at 4×MIC
Method: as §1
The effect of XF drugs on the viability of cold culture cells was determined by growing S. aureus SH1000 to early exponential phase at 37° C., harvesting the cells by centrifugation (5,000×g, 10 min.) and resuspending them in pre-chilled media where they were maintained in the presence and absence of XF drugs and control agents for 5 hours. […] (FIG. 11).
(§2) The anti-staphylococcal activities of Compound 10, Compound 12 and a range of comparator agents against slow-growing cultures of Staphylococcus aureus were studied using standard time-kill methodology (Oliva et al. 2003, Hobbs et al. 2008). Staphylococcus aureus SH1000 cultures were grown to early exponential phase (OD600 nm of 0.2) in Mueller-Hinton broth (MHB) before being exposed to antibacterial agents at 4×MIC. An untreated culture served as the negative control. The experiments were undertaken in triplicate.
Cold cultures were prepared by growing SH1000 cells to early exponential phase (OD600 nm of 0.2) at 37° C. Cultures were then centrifuged and the cell pellet was resuspended in MHB pre-chilled to 4° C. The killing kinetics of antimicrobial agents were studied as described in the section above, with the exception that cultures were maintained at 4° C. over the 5 hour sampling period.

[3] = test system: stringent S. aureus SH1000 cultures; assay: Time-kill against cultures expressing the stringent response (induced with mupirocin); conditions: stringent response induced with mupirocin, agents at 4×MIC
Method: as §1
When nutrients become limiting for growth bacteria adjust their metabolism from one that supports growth to one that provides for long survival in the absence of nutrients. In many bacteria a key facilitator of this physiological switch, known as the stringent response, is accumulation of guanosine […] and pentaphosphate (Traxler et al., 2008). The antibiotic mupirocin is a strong inducer of the stringent response in S. aureus and effectively causes starvation of charged isoleucyl tRNA by potent inhibition of isoleucy ItRNA synthetase (IRS) (Oliva et al., 2003). The activity of XF drugs against S. aureus SH1000 prevented from growing by the addition of mupirocin (Oliva et al., 2003), was therefore examined (FIG. 10). As an alternative method for arresting growth, bacteria were suspended in cold growth medium (Mascio et al., 2007) and the bactericidal activity of XF drugs was also determined under these conditions (FIG. 11).
as §2
The antibiotic mupirocin is a strong inducer of the stringent response in S. aureus and causes starvation of charged isoleucyl tRNA by potent inhibition of isoleucyl tRNA synthetase (IRS) (Oliva et al. 2003, Cassels et al. 1995) Stringency was induced in SH1000 cultures by adding mupirocin (4 mg/L) to cells in the early exponential growth phase (OD600 nm of 0.2) (Oliva et al. 2003, Cassels et al. 1995). Cultures were incubated with mupirocin for 30 minutes before sampling began. Cultures were maintained at 37° C., and samples were taken at 30 minute intervals for 300 minutes, serially diluted in phosphate buffered saline (PBS) and diluted culture was spread on Mueller-Hinton agar and was incubated at 37° C. for 18-24 hours before the number of CFU were counted.

[4] = S. aureus SH1000, Calgary Biofilm Device, 24 hours (Table 6)
[5] = S. aureus SH1000, Calgary device (Example H)
[6] = S. aureus SH1000, Calgary Biofilm Device (Table 6)
[7] = planktonic S. aureus SH1000 (Table 5)
[8] = planktonic S. aureus SH1000 (Table 6)
[9] = 24 h, S. aureus SH1000, Calgary Biofilm Device, 24 hours (Table 6)
[10] = Staphylococcus aureus, planktonic S. aureus SH1000 (Table 5), read-out: MIC

Row | Compound | bMIC [1, 4] [µg/mL] | bMIC [1, 5] [µg/mL] | MBEC [1, 6] [µg/mL] | MBEC [1, 5] [µg/mL] | MIC (S. aureus SH1000; [7]) [µg/mL] | MIC (S. aureus SH1000; [8]) [µg/mL] | MIC [1, 9] [µg/mL] | MIC [1, 5] [µg/mL] | MIC (S. aureus SH1000; [10]) [µg/mL] | viability / bactericidal activity in time-kill (in words) [2] | viability / bactericidal activity in time-kill (in words) [3]
1 | CCCCCCCCCCCCCCCC[N+](C)(C)C.[Br-] [CTAB] | 2 | 2 | >256 | >256 | 2 | 2 |  |  |  |  | 
2 | CO/N=C(\C(=O)N[C@@H]1C(=O)N2C(C(=O)O)=C(COC(C)=O)CS[C@H]12)c1csc(N)n1 [Cefotaxime] |  |  |  |  |  | 0.5 (≈ 1.1 µM) | 4 (≈ 8.78 µM) | 4 (≈ 8.78 µM) | 0.5 (≈ 1.1 µM) |  | 
3 | [H]/N=C(\N/C(=N/[H])NCCCCCCNC(=N)NC(=N)Nc1ccc(Cl)cc1)Nc1ccc(Cl)cc1 [Chlorhexidine] |  |  |  |  |  | 2 (≈ 3.96 µM) | 1 (≈ 1.98 µM) | 1 (≈ 1.98 µM) | 2 (≈ 3.96 µM) |  | 
4 | O=C(O)c1cn(C2CC2)c2cc(N3CCNCC3)c(F)cc2c1=O [Ciprofloxacin] |  |  |  |  |  | 2 (≈ 6.04 µM) | 4 (≈ 12.1 µM) | 4 (≈ 12.1 µM) | 2 (≈ 6.04 µM) |  | 
5 | CCCCCCCCCC(=O)N[C@@H](Cc1c[nH]c2ccccc12)C(=O)N[C@H](CC(N)=O)C(=O)N[C@@H](CC(=O)O)C(=O)N[C@@H]1C(=O)NCC(=O)N[C@@H](CCCN)C(=O)N[C@@H](CC(=O)O)C(=O)N[C@H](C)C(=O)N[C@@H](CC(=O)O)C(=O)NCC(=O)N[C@H](CO)C(=O)N[C@@H]([C@H](C)CC(=O)O)C(=O)N[C@@H](CC(=O)c2ccccc2N)C(=O)O[C@@H]1C [Daptomycin] |  |  |  |  |  | 1 (≈ 0.617 µM) | 2 (≈ 1.23 µM) | 2 (≈ 1.23 µM) | 1 (≈ 0.617 µM) | no loss of viability; also recorded: retained some bactericidal activity; also recorded: retained limited bactericidal activity | no loss of viability
6 | Cc1onc(-c2c(F)cccc2Cl)c1C(=O)N[C@@H]1C(=O)N2[C@@H]1SC(C)(C)[C@@H]2C(=O)O [Flucloxacillin] |  |  |  |  |  | 0.125 (≈ 0.275 µM) | 4 (≈ 8.81 µM) | 4 (≈ 8.81 µM) | 0.125 (≈ 0.275 µM) |  | 
7 | CC(=O)O[C@H]1C[C@@]2(C)[C@@H](C[C@@H](O)[C@H]3[C@@]4(C)CC[C@@H](O)[C@@H](C)[C@@H]4CC[C@@]32C)/C1=C(\CCC=C(C)C)C(=O)O [Fusidic acid] |  |  |  |  |  | 0.25 (≈ 0.484 µM) | 0.5 (≈ 0.968 µM) | 0.5 (≈ 0.968 µM) | 0.25 (≈ 0.484 µM) |  | 
8 | C[C@@H](O)[C@H]1C(=O)N2C(C(=O)O)=C(S[C@@H]3CN[C@H](C(=O)N(C)C)C3)[C@H](C)[C@H]12 [Meropenem] |  |  |  |  |  | 0.5 (≈ 1.3 µM) | 0.5 (≈ 1.3 µM) | 0.5 (≈ 1.3 µM) | 0.5 (≈ 1.3 µM) |  | 
9 | C/C(=C\C(=O)OCCCCCCCCC(=O)O)C[C@@H]1OC[C@H](C[C@@H]2O[C@H]2[C@@H](C)[C@H](C)O)[C@@H](O)[C@H]1O [Mupirocin] |  |  |  |  |  | 0.125 (≈ 0.25 µM) | 0.25 (≈ 0.499 µM) | 0.25 (≈ 0.499 µM) | 0.125 (≈ 0.25 µM) |  | 
10 | CO[C@H]1/C=C/O[C@@]2(C)Oc3c(C)c(O)c4c(O)c(c(/C=N/N5CCN(C)CC5)c(O)c4c3C2=O)NC(=O)/C(C)=C\C=C\[C@H](C)[C@H](O)[C@@H](C)[C@@H](O)[C@@H](C)[C@H](OC(C)=O)[C@@H]1C [Rifampin] |  |  |  |  |  | 0.008 (≈ 0.00972 µM) | 0.02 (≈ 0.0243 µM) | 0.03 (≈ 0.0365 µM) | 0.008 (≈ 0.00972 µM) |  | 
11 | CN(C)[C@@H]1C(O)=C(C(N)=O)C(=O)[C@@]2(O)C(O)=C3C(=O)c4c(O)cccc4[C@@](C)(O)[C@H]3C[C@@H]12 [Tetracycline] |  |  |  |  |  | 1 (≈ 2.25 µM) | 0.5 (≈ 1.13 µM) | 0.5 (≈ 1.13 µM) | 1 (≈ 2.25 µM) |  | 
12 | Gentamycin | 1 | 1 | >256 | >256 | 0.5 | 0.5 |  |  |  |  | 
